Test results: patent publication US9802880B2, “Cannabigerol derivatives” (VIVACELL BIOTECHNOLOGY ESPAÑA S.L., priority 2014, dated 2017)

Columns and labels:
[1] = tested on: PPARg
[2] = tested on: PPARg; assay: PPARg transactivation assay in human dermal primary fibroblasts; type: cell-based; settings: 6 h treatment, FIG. 2
Excerpt: FIG. 2. PPARg Transactivation Assays in Human Dermal Primary Fibroblasts.

[3] = tested on: 6-OHDA-lesioned mice; assay: Parkinson's disease 6-OHDA model, rotarod and actimeter; type: in vivo, C57BL/6 mice; settings: 6-OHDA mice, chronic intraperitoneal treatment 10 mg/ml, 14 days, FIG. 13
Description: C57BL/6 mice were unilaterally injected intracerebroventricullarly with 6-hydroxydopamine (6-OHDA) or saline (control mice) and subjected to chronic intraperitoneal treatment with compound III (10 mg/ml) or vehicle (14 days), starting 16 h after the 6-OHDA injection. Motor coordination was evaluated by rotarod performance and motor activity was evaluated using a computer-aided actimeter. Values are expressed as means±SEM for 6 animals per group.
C57BL/6 mice pretreated intracerebroventricularly (i.c.v.) were anesthetized with an intraperitoneal (i.p.) injection of 200 mg′kg of 2,2,2-tribromoethanol (Sigma-Aldrich) and placed in a stereotaxic frame with a mouse adapter (David Kopf Instruments, Tujunga, Calif., USA). […] Motor coordination was evaluated in the rotarod test (Ugo Basile, Rome, Italy) at crescent speed. […] The latency to fall off the rod was measured on consecutive days in lesioned mice following the compound III administration or vehicle control. Motor activity (ambulatory activity, mean velocity, resting time, fast movements and number of rearings) was evaluated using a computer-aided actimeter (FIG. 13).

[4] = tested on: COX-2, iNOS, TNFα and IL-6; assay: 3NP model, inflammatory marker mRNAs in the striatum (real-time PCR); type: in vivo, C57BL/6 mice; settings: 3NP-treated mice, 10 mg/kg, FIG. 10 and FIG. 11
Description: Gene expression of inflammatory markers including COX-2, TNFα, IL-6 and iNOS, was down regulated in 3NP+compound III (10 mg/kg) treated mice compared with 3NP+Vehicle mice. Expression levels were calculated using the 2^−ΔΔct method. Values are expressed as means±SEM for 6 animals per group.
Gene expression of inflammatory markers including COX-2, TNFα, IL-6 and iNOS, was down regulated in 3NP+XII (10 mg/kg) treated mice compared with 3NP+Vehicle mice. Expression levels were calculated using the 2^−ΔΔct method. Values are expressed as means±SEM for 6 animals per group.
Lesions of the striatum were induced with 3-NP in adult (16 week old; 30 g) male C57BL/6 mice (Harlan Ibérica, Barcelona, Spain). […] The right hemisphere was used to dissect the striatum, which was quickly frozen in RNAlater (Sigma-Aldrich, Germany) to analyzed inflammatory markers were by Real Time PCR. […] We evaluated the general locomotor activity, the hindlimb clasping and dystonia, and the truncal dystonia. […]
Total RNA was isolated from striata (3NP model) or spinal cord (EAE model) using RNeasy Lipid Tissue Mini Kit (Qiagen, GmbH). The total amount of RNA extracted was quantitated by spectrometry at 260 nm and its purity from the ratio between the absorbance values at 260 and 280 nm. […] Expression levels were calculated using the 2^−ΔΔct method.

## CCCCCC1=C(NCC)C(=O)C(C/C=C(\C)CCC=C(C)C)=C(O)C1=O [Compound III, 6-(3,7-dimethyl-octa-2,6-dienyl)-5-hydroxy-3-pentyl-2-ethylamino-[1,4]benzoquinone]
[1]
  PPARg transactivation (luciferase activity, fold induction over untreated cells): most active compounds
[2]
  PPARg activation (fold) compared with CBG-Q: higher efficiency than CBG-Q
[3]
  motor symptoms (ambulatory activity, mean velocity, resting time, fast movement, number of rearing, rotarod performance): almost completely suppressed
[4]
  up-regulation of pro-inflammatory markers COX-2, iNOS, TNFα and IL-6 in the striatum: attenuated the up-regulation
